ChEMBL document CHEMBL5385856, “Novel 1,4,5,6-tetrahydrocyclopenta[d]imidazole-5-carboxamide-based JNK3 inhibitors: Design, synthesis, molecular docking, and therapeutic potential in neurodegenerative diseases” (Eur J Med Chem, 2023)
The source made the active and inactive calls. The calls are words filed in the database; no cut-off is given here.

Key:
[1] = biological target: Mitogen-activated protein kinase 10 (Rattus norvegicus) (UniProt P49187); assay: Inhibition of JNK3 in primary rat cortex neuron cells assessed as reduction in Abeta1-42 induced c-Jun phosphorylation by Western blotting analysis; format: cell-based; conditions: Primary cortical neuron
Cortical neurone = assay: cells; conditions: Rattus norvegicus, 120 h, read-out: Activity
[2] = biological target: Mitogen-activated protein kinase 10 (Rattus norvegicus) (UniProt P49187); assay: Inhibition of JNK3 in primary rat cortex neuron cells assessed as reduction in Abeta1-42 induced APP phosphorylation by Western blotting analysis; format: cell-based; conditions: Primary cortical neuron
[3] = biological target: T1, Mitogen-activated protein kinase 10 (Homo sapiens, UniProt P53779); assay: Inhibition of JNK3 (unknown origin) using ATF2 as substrate incubated for 40 mins in presence of [gamma33P]ATP by scintillation counting analysis
[4] = biological target: T2, Mitogen-activated protein kinase 9 (Homo sapiens, UniProt P45984); assay: Inhibition of JNK2 (unknown origin) incubated for 20 mins in presence of 33P-ATP
Target sequence in this assay (P45984 whole entry): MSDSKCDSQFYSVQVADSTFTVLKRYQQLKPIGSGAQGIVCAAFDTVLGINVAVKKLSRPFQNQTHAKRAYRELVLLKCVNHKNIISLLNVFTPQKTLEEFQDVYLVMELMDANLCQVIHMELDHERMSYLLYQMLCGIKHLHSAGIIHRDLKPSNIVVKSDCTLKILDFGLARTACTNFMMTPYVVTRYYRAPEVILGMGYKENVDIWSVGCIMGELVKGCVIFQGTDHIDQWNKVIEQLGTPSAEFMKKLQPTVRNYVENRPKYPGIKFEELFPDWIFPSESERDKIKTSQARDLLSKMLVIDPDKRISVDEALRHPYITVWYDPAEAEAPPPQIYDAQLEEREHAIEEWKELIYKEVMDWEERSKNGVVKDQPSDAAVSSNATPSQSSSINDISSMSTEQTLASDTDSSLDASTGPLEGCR

[5] = biological target: T3, Mitogen-activated protein kinase 14 (Homo sapiens, UniProt Q16539); assay: Inhibition of p38alpha (unknown origin) incubated for 20 mins in presence of 33P-ATP
[6] = biological target: T4, Mitogen-activated protein kinase 8 (Homo sapiens, UniProt P45983); assay: Inhibition of JNK1 (unknown origin) incubated for 20 mins in presence of 33P-ATP
[7] = biological target: Glycogen synthase kinase-3 beta (Homo sapiens, UniProt P49841); assay: Inhibition of GSK3beta (unknown origin) incubated for 20 mins in presence of 33P-ATP
[8] = Selectivity ratio of IC50 for inhibition of JNK1 (unknown origin) to IC50 for inhibition of JNK3 (unknown origin)
[9] = biological target: T4, Mitogen-activated protein kinase 8; assay: Inhibition of JNK1 (unknown origin) at 1 uM relative to control
[10] = biological target: T2, Mitogen-activated protein kinase 9; assay: Inhibition of JNK2 (unknown origin) at 1 uM relative to control
Target sequence in this assay (P45984 whole entry, looked up): as the sequence (P45984 whole entry) above

[11] = Selectivity ratio of IC50 for inhibition of GSK3beta (unknown origin) to IC50 for inhibition of JNK3 (unknown origin)
[12] = biological target: T3, Mitogen-activated protein kinase 14; assay: Inhibition of p38alpha (unknown origin) at 1 uM relative to control
[13] = Selectivity ratio of IC50 for inhibition of p38alpha (unknown origin) to IC50 for inhibition of JNK3 (unknown origin)
[14] = biological target: T1, Mitogen-activated protein kinase 10; assay: Inhibition of JNK3 (unknown origin) at 1 uM relative to control

T4 sequence (P45983 whole entry): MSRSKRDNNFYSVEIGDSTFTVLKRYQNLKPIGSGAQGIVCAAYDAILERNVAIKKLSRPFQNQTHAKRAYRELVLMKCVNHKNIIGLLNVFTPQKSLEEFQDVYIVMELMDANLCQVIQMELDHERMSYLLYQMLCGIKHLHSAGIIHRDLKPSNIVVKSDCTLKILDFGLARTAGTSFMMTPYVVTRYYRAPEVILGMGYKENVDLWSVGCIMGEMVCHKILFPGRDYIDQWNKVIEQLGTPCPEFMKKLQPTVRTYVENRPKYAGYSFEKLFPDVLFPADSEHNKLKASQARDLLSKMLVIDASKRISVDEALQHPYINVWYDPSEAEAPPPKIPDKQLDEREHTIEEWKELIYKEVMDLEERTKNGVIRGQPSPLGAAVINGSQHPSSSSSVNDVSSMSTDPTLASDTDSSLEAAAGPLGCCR
T1 sequence (P53779 whole entry): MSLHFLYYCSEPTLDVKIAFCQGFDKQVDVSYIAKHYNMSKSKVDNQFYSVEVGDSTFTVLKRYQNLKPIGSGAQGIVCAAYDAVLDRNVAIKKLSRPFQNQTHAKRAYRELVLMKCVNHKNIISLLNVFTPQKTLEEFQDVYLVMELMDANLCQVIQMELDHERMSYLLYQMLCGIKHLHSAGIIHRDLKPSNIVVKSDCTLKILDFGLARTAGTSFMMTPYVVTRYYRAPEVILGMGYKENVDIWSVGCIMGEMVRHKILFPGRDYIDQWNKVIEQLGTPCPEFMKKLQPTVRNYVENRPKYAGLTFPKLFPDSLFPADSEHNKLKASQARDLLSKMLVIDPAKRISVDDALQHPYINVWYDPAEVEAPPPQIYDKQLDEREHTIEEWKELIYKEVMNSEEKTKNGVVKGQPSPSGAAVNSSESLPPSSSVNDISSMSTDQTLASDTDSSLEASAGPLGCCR
T3 sequence (Q16539 whole entry): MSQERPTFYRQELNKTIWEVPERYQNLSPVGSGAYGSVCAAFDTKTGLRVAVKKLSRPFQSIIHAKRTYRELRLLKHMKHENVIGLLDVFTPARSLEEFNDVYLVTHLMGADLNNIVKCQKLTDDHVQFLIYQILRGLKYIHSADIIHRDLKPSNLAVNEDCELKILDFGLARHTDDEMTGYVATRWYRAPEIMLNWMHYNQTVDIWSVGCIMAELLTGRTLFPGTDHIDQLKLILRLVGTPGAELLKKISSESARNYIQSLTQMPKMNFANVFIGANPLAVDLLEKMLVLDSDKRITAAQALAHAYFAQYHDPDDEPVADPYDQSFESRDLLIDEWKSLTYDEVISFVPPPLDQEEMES
Glycogen synthase kinase-3 beta, sequence (P49841 whole entry): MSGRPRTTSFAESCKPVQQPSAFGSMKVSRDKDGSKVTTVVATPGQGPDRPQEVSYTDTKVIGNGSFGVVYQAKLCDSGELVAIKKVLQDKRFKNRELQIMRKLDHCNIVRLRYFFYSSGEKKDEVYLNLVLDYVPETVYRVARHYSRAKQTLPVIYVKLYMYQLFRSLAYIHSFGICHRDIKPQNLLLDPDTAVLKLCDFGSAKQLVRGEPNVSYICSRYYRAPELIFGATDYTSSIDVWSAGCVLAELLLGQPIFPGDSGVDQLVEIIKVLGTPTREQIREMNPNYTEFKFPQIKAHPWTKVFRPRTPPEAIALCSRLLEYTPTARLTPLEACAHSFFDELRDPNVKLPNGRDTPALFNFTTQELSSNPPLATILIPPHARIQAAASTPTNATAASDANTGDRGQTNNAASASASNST
Mitogen-activated protein kinase 10 (Rattus norvegicus), sequence (P49187 whole entry): as the sequence (P53779 whole entry) above, with Q27H, Y32S, I33V, A34V counted along it

Question: Which inhibition [1] does the source give for NC(=O)C1Cc2nc(-c3ccc4ccccc4c3)n(-c3ccnc(N[C@H]4CCCN(C(=O)C5CC5)C4)n3)c2C1 (stereo not given in full) here?
Answer: Active

Question: And the viability at 10 µM (Cortical neurone)?
Answer: 58.5%

Question: And the inhibition [2]?
Answer: Active

Question: What about the IC50 [3] of the same molecule?
Answer: 0.00176 µM

Question: Which IC50 [3] does the source give for CCOC(=O)C1Cc2nc(-c3ccc4ccccc4c3)n(-c3ccnc(N[C@@H]4CCN(C(=O)C5CC5)C4)n3)c2C1 (stereo not given in full) here?
Answer: 0.00682 µM

Question: With CCOC(=O)C1Cc2nc(-c3ccc4ccccc4c3)n(-c3ccnc(N[C@H]4CCCN(C(=O)C5CC5)C4)n3)c2C1 (stereo not given in full) as the molecule, how does the inhibition [1] read?
Answer: Active

Question: What about the viability at 10 µM (Cortical neurone) of the same molecule?
Answer: 55.7%

Question: What about the IC50 [4] of the same molecule?
Answer: 0.013 µM

Question: What about the inhibition [2] of the same molecule?
Answer: Active

Question: And the IC50 [5]?
Answer: 0.291 µM

Question: And the IC50 [6]?
Answer: 0.0325 µM

Question: What about the IC50 [3] of the same molecule?
Answer: 0.000716 µM

Question: What about the IC50 [7] of the same molecule?
Answer: 2.25 µM

Question: Which IC50 [3] does the source give for NC(=O)C1Cc2nc(-c3ccc4ccccc4c3)n(-c3ccnc(N[C@H]4CCN(C(=O)C5CC5)C4)n3)c2C1 (stereo not given in full) here?
Answer: 0.0148 µM

Question: With CCOC(=O)C1Cc2nc(-c3ccc(F)c(C(F)(F)F)c3)n(-c3ccnc(N[C@@H]4CCN(C(=O)C5CC5)C4)n3)c2C1 (stereo not given in full) as the molecule, how does the IC50 [3] read?
Answer: 0.0631 µM

Question: With CNC(=O)C1Cc2nc(-c3ccc4ccccc4c3)n(-c3ccnc(N[C@H]4CCCN(C(=O)C5CC5)C4)n3)c2C1 (stereo not given in full) as the molecule, how does the Ratio IC50 [8] read?
Answer: > 100

Question: What about the inhibition [9] of the same molecule?
Answer: 80%

Question: What about the IC50 [4] of the same molecule?
Answer: 0.00756 µM

Question: What about the inhibition [10] of the same molecule?
Answer: 80%

Question: And the IC50 [5]?
Answer: 0.751 µM

Question: What about the Ratio IC50 [11] of the same molecule?
Answer: > 100

Question: And the inhibition [12]?
Answer: 80%

Question: What about the IC50 [6] of the same molecule?
Answer: 0.0144 µM

Question: And the Ratio IC50 [13]?
Answer: > 100

Question: And the IC50 [3]?
Answer: 0.000564 µM

Question: What about the inhibition [14] of the same molecule?
Answer: 100%

Question: And the IC50 [7]?
Answer: 1.8 µM

Question: With CCOC(=O)C1Cc2nc(-c3ccc4c(c3)CCO4)n(-c3ccnc(N[C@@H]4CCCN(C(=O)C5CC5)C4)n3)c2C1 (stereo not given in full) as the molecule, how does the IC50 [3] read?
Answer: 0.0104 µM

Question: Which IC50 [3] does the source give for NC(=O)C1Cc2nc(-c3ccc4c(c3)OCO4)n(-c3ccnc(N[C@H]4CCN(C(=O)C5CC5)C4)n3)c2C1 (stereo not given in full) here?
Answer: 0.135 µM

Question: With NC(=O)C1Cc2nc(-c3ccc4c(c3)CCO4)n(-c3ccnc(N[C@H]4CCN(C(=O)C5CC5)C4)n3)c2C1 (stereo not given in full) as the molecule, how does the IC50 [3] read?
Answer: 0.0873 µM

Question: With CCOC(=O)C1Cc2nc(-c3ccc(F)c(C(F)(F)F)c3)n(-c3ccnc(N[C@H]4CCCN(C(=O)C5CC5)C4)n3)c2C1 (stereo not given in full) as the molecule, how does the IC50 [3] read?
Answer: 0.0528 µM

Question: For NC(=O)C1Cc2nc(-c3ccc(Cl)c(Cl)c3)n(-c3ccnc(N[C@H]4CCCN(C(=O)C5CC5)C4)n3)c2C1 (stereo not given in full), which inhibition [1] is on record?
Answer: Active

Question: What about the viability at 10 µM (Cortical neurone) of the same molecule?
Answer: 62.9%

Question: What about the inhibition [9] of the same molecule?
Answer: 80%

Question: And the IC50 [4]?
Answer: 0.0294 µM

Question: What about the inhibition [2] of the same molecule?
Answer: Active

Question: And the inhibition [10]?
Answer: 80%

Question: What about the IC50 [5] of the same molecule?
Answer: 0.216 µM

Question: What about the inhibition [12] of the same molecule?
Answer: 80%

Question: And the IC50 [6]?
Answer: 0.0827 µM

Question: And the IC50 [3]?
Answer: 0.000379 µM

Question: What about the inhibition [14] of the same molecule?
Answer: 100%

Question: What about the IC50 [7] of the same molecule?
Answer: 3.89 µM

Question: For NC(=O)C1Cc2nc(-c3ccc(Cl)c(Cl)c3)n(-c3ccnc(N[C@H]4CCN(C(=O)C5CC5)C4)n3)c2C1 (stereo not given in full), which IC50 [3] is on record?
Answer: 0.0154 µM

Question: For NC(=O)C1Cc2nc(-c3ccc(F)c(C(F)(F)F)c3)n(-c3ccnc(N[C@H]4CCN(C(=O)C5CC5)C4)n3)c2C1 (stereo not given in full), which IC50 [3] is on record?
Answer: 0.183 µM

Question: Which IC50 [3] does the source give for CCOC(=O)C1Cc2nc(-c3ccc4ccccc4c3)n(-c3ccnc(N[C@H]4CCN(C(=O)C5CC5)C4)n3)c2C1 (stereo not given in full) here?
Answer: 0.0234 µM

Question: With CNC(=O)C1Cc2nc(-c3ccc(F)c(C(F)(F)F)c3)n(-c3ccnc(N[C@@H]4CCN(C(=O)C5CC5)C4)n3)c2C1 (stereo not given in full) as the molecule, how does the IC50 [3] read?
Answer: 0.3 µM

Question: Which IC50 [3] does the source give for NC(=O)C1Cc2nc(-c3ccc(F)c(C(F)(F)F)c3)n(-c3ccnc(N[C@H]4CCCN(C(=O)C5CC5)C4)n3)c2C1 (stereo not given in full) here?
Answer: 0.00639 µM

Question: With CNC(=O)C1Cc2nc(-c3ccc4c(c3)OCO4)n(-c3ccnc(N[C@H]4CCN(C(=O)C5CC5)C4)n3)c2C1 (stereo not given in full) as the molecule, how does the IC50 [3] read?
Answer: 0.18 µM

Question: With NC(=O)C1Cc2nc(-c3ccc4ccccc4c3)n(-c3ccnc(N[C@@H]4CCCN(C(=O)C5CC5)C4)n3)c2C1 (stereo not given in full) as the molecule, how does the IC50 [3] read?
Answer: 0.00172 µM

Question: For CCOC(=O)C1Cc2nc(-c3ccc4c(c3)CCO4)n(-c3ccnc(N[C@@H]4CCN(C(=O)C5CC5)C4)n3)c2C1 (stereo not given in full), which IC50 [3] is on record?
Answer: 0.0215 µM

Question: Which IC50 [3] does the source give for CCOC(=O)C1Cc2nc(-c3ccc(F)c(C(F)(F)F)c3)n(-c3ccnc(N[C@H]4CCN(C(=O)C5CC5)C4)n3)c2C1 (stereo not given in full) here?
Answer: 0.453 µM

Question: For NC(=O)C1Cc2nc(-c3ccc4c(c3)OCO4)n(-c3ccnc(N[C@@H]4CCCN(C(=O)C5CC5)C4)n3)c2C1 (stereo not given in full), which IC50 [3] is on record?
Answer: 0.0361 µM

Question: With CCOC(=O)C1Cc2nc(-c3ccc4c(c3)OCO4)n(-c3ccnc(N[C@@H]4CCCN(C(=O)C5CC5)C4)n3)c2C1 (stereo not given in full) as the molecule, how does the IC50 [3] read?
Answer: 0.0012 µM

Question: For NC(=O)C1Cc2nc(-c3ccc(F)c(C(F)(F)F)c3)n(-c3ccnc(N[C@@H]4CCN(C(=O)C5CC5)C4)n3)c2C1 (stereo not given in full), which IC50 [3] is on record?
Answer: 0.3 µM

Question: For CCOC(=O)C1Cc2nc(-c3ccc(Cl)c(Cl)c3)n(-c3ccnc(N[C@@H]4CCCN(C(=O)C5CC5)C4)n3)c2C1 (stereo not given in full), which IC50 [4] is on record?
Answer: 0.00856 µM

Question: And the IC50 [5]?
Answer: 0.0532 µM

Question: And the IC50 [6]?
Answer: 0.0828 µM

Question: And the IC50 [3]?
Answer: 0.000607 µM

Question: What about the IC50 [7] of the same molecule?
Answer: 0.195 µM

Question: With CCOC(=O)C1Cc2nc(-c3ccc4c(c3)OCO4)n(-c3ccnc(N[C@@H]4CCN(C(=O)C5CC5)C4)n3)c2C1 (stereo not given in full) as the molecule, how does the IC50 [3] read?
Answer: 0.0499 µM

Question: With NC(=O)C1Cc2nc(-c3ccc(Cl)c(Cl)c3)n(-c3ccnc(N[C@@H]4CCCN(C(=O)C5CC5)C4)n3)c2C1 (stereo not given in full) as the molecule, how does the inhibition [9] read?
Answer: 80%

Question: What about the IC50 [4] of the same molecule?
Answer: 0.0166 µM

Question: What about the inhibition [10] of the same molecule?
Answer: 80%

Question: What about the IC50 [5] of the same molecule?
Answer: 0.0706 µM

Question: What about the inhibition [12] of the same molecule?
Answer: 80%

Question: What about the IC50 [6] of the same molecule?
Answer: 0.16 µM

Question: What about the IC50 [3] of the same molecule?
Answer: 0.00073 µM

Question: And the inhibition [14]?
Answer: 100%

Question: And the IC50 [7]?
Answer: 0.47 µM
